# Measurements reported in patent US11799117B2, “Flow batteries incorporating a nitroxide compound within an aqueous electrolyte solution” (LOCKHEED MARTIN ENERGY, LLC, priority 2016, dated 2023).
# Legend:
# Type in all cases: physicochemical
# [1] = Reduction potential versus a saturated calomel electrode
# Text: (§1) First, it has a reduction potential of approximately 0.6 V versus a saturated calomel electrode, which is desirably higher than that of iron hexacyanide coordination compounds (increase of 0.25 V).
# [2] = Aqueous solubility
# Text: as §1
# [3] = Electrochemical kinetics by cyclic voltammetry; settings: also in alkaline aqueous electrolyte solutions; substantially reversible = anodic/cathodic peak difference less than about 0.3 V
# Text: The high positive half-cell reduction potentials can provide significant advantages when incorporated in flow batteries, particularly in comparison to the commonly used iron hexacyanide coordination compounds. The high positive reduction potential can allow improved open circuit potential, voltage efficiency and current efficiency values to be realized. In addition, the improved solubility of many nitroxide compounds compared to iron hexacyanide coordination compounds allows improved energy density values to be realized.
# The nitroxide compound defined by Structure 12 has the chemical name [2,2,6,6-tetramethyl-4-(sulfooxy)piperidin-1-yl]oxidanyl (also referred to herein as TEMPOSO). Without being bound by any theory or mechanism, it is believed that the sulfate (sulfooxy) group can stabilize the nitroxide group when the six-membered ring is in its “boat”, configuration. […] Under alkaline aqueous solutions, the deprotonated anionic form of Structure 12 can be stabilized after oxidation of the radical through lone pair donation from the sulfooxy group to the resulting nitrogen-centered cation.
# as §1
# [4] = Conductivity of aqueous solution; settings: 1 M aqueous solution, pH 11, absence of other electrolytes
# Text: as §1
substance,measurement,setting,value
"[2,2,6,6-tetramethyl-4-(sulfooxy)piperidin-1-yl]oxidanyl [TEMPOSO]",increase of reduction potential over iron hexacyanide coordination compounds,[1],0.25 V
same,reduction potential,[1],approximately 0.6 V
same,aqueous solubility,[2],≥ 1800 mM
same,electrochemical kinetics,[3],substantially reversible
same,conductivity,[4],about 50 mS/cm
